# Assay results as given in article PMC3532720, “A Sugar Gustatory Receptor Identified from the Foregut of Cotton Bollworm Helicoverpa armigera” (Journal of Chemical Ecology, 2012).
# Target: T1, HaGR9 (Helicoverpa armigera, UniProt L0C9V2)
# T1 construct: gene GR9; native full-length receptor, 465 residues, untagged, cDNA from larval foregut, transiently expressed in Spodoptera frugiperda Sf9 cells, no co-receptor co-transfected
# T1 sequence (L0C9V2 1-465): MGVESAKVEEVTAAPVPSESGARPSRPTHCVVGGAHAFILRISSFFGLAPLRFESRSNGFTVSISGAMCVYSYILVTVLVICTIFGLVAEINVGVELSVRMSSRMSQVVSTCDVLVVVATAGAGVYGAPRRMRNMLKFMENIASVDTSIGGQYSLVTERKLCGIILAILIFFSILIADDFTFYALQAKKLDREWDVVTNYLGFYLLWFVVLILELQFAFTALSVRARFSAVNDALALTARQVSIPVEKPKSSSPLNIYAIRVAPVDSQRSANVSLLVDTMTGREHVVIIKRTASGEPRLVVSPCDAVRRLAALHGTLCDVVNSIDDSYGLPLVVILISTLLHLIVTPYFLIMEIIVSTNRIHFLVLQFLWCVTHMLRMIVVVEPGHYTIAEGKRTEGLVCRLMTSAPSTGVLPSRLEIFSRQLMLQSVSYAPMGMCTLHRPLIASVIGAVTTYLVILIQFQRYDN
# Assay: calcium imaging, transfected Sf9 cells
# Type: cell-based
# Settings: agonist; dose range 5 to 50 mM; HBSS buffer; control-cell response subtracted; Sf9 cells have endogenous sugar responses
smiles,measurement,value
OCC1(O)OC[C@@H](O)[C@@H](O)[C@@H]1O (stereo partly drawn) [D-fructose],EC50,21.5 ± 1.1 mM
OC[C@H]1OC(O)[C@H](O)[C@@H](O)[C@H]1O (stereo partly drawn) [D-galactose],EC50,21.3 ± 1.1 mM
OC[C@H]1O[C@H](O[C@H]2[C@H](O)[C@@H](O)C(O)O[C@@H]2CO)[C@H](O)[C@@H](O)[C@@H]1O (stereo partly drawn) [D-maltose],EC50,16.5 ± 1.3 mM
